# Test results published in patent US20260042764A1, “COMPOSITIONS AND METHODS FOR INHIBITION OF KRAS” (TheRas, Inc., priority 2022, published 2026).
# What was measured:
# [1] = tested on: GP2d cells (KRAS G12D); experiment: Cell-based pERK HTRF assay in GP2d cell (Biological Example 2); conditions: GP2d (KRAS G12D) cells
# How it was run: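 60 min compound, 0.25% DMSO, 9-pt half-log curve from 1 μM or 100 nM; DMEM/10% FBS.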
# [2] = tested on: SW1900 cells (KRAS G12D); experiment: 3D Cell viability assay in SW1900 cells (Biological Example 6); type: cell-based; conditions: SW1990 (text: SW1900, KRAS G12D) spheroids, 72 hours
# Description: (§1) Biological Example 6: 3D Cell viability assay in AsPC-1, SW1900, HPAC, Capan-2, RKN, H358, HCT116, KP-2, H1573, A549, MKN1, and HT1080 cells
# (§2) The inhibition of cellular viability as a result of test compound treatment in a spheroid assay was measured using the CellTiter-Glow 3D Cell Viability Assay (Promega).
# (§3) On Day 1, 1000 cells per well were seeded in 150 μL of complete growth media supplemented with 10% fetal bovine serum (FBS) and incubated at 37° C., in the presence of 5% CO2 in 96-well ultra-low attachment microplates (Corning) for 48 hours undisturbed to allow spheroids to form.
# (§4) Following spheroid formation, cells were treated with compounds diluted in DMSO at 0.25% final DMSO concentration. Compounds were dosed in a 9-point concentration curve with three-fold dilution between concentrations. Cells were incubated in the presence of compound for 72 hours at 37° C., in the presence of 5% CO2.
# (§5) Following this incubation period, the kit-provided CTG reagent was allowed to equilibrate for 30 minutes at room temperature, 150 μL of equilibrated CTG reagent was added to each well, and the plate was sealed before shaking at 250 rpm for 10 minutes at room temperature to lyse the cells, 150 μL of lysate per well was transferred to a 96-well plate and luminescence was read on a CLARIOstar plate reader.
# (§6) Data was imported into the Prism software package (Graphpad) and EC50 values were calculated using the log (inhibitor) vs, response—variable slope (Four parameters) model.
# [3] = tested on: H358 cells (KRAS G12C); experiment: 3D Cell viability assay in H358 cells (Biological Example 6); type: cell-based; conditions: H358 (KRAS G12C) spheroids, 72 hours
# Description: as §1, §2, §3, §4, §5, §6
# [4] = tested on: MKN1 cells (KRAS amplification); experiment: 3D Cell viability assay in MKN1 cells (Biological Example 6); type: cell-based; conditions: MKN (MKN1, KRAS amplification) spheroids, 72 hours
# Description: as §1, §2, §3, §4, §5, §6
# [5] = biological target: T1, Avi-KRAS G12D (2-169) GTP/RAF1 RBD-3xFLAG (51-131) (Homo sapiens, UniProt P01116, G12D); experiment: Raf1-KRAS G12D-GTP disruption HTRF assay (Biological Example 3); type: binding; conditions: KRAS G12D, GTP-loaded
# T1 construct: Avi-KRAS G12D (2-169)
# T1 sequence (P01116 2-169 isoform P01116-2 G12D): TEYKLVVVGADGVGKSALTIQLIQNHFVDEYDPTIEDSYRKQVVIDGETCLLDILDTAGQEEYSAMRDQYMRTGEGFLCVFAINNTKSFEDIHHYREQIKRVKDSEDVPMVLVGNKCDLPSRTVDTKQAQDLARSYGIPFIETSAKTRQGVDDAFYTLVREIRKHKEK
# How it was run: (§7)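 HTRF PPI read-out (ex 320 nm, em 615 nm) after 1 h RT incubation with shaking; data as % activity vs DMSO (100%), IC50 from curve fit. Complex 50 nM, RBD reagent 75 nM; compound 30-0.005 μM, 3-fold.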
# [6] = biological target: T2, Avi-KRAS WT (2-169) GTP/RAF1 RBD-3xFLAG (51-131) (Homo sapiens, UniProt P01116); experiment: Raf1-KRAS WT-GTP disruption HTRF assay (Biological Example 3); type: binding; conditions: KRAS WT, GTP-loaded
# T2 construct: Avi-KRAS WT (2-169)
# T2 sequence (P01116 2-169 isoform P01116-2): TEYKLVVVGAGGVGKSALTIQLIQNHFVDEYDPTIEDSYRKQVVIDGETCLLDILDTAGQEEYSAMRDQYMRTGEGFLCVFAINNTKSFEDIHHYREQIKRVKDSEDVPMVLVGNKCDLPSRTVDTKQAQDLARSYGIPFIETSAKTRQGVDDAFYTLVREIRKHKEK
# How it was run: as §7
SMILES,IC50 ([1]; pERK HTRF) [nM],IC50 ([2]; Homo sapiens) [nM],"IC50 ([3]; Homo sapiens, NCI-H358) [nM]","IC50 ([1]; GP2d, pERK HTRF, class symbols) [nM]","IC50 ([4]; Homo sapiens, MKN-1) [nM]","IC50 ([1]; GP2d, pERK HTRF) [nM]",IC50 ([1]; GP2d) [nM],IC50 [5] [nM],IC50 [6] [nM],IC50 [1] [nM],"IC50 ([1]; pERK HTRF, class symbols) [nM]",IC50 [2] [nM],IC50 [3] [nM],IC50 [4] [nM]
CCC(=O)N1CC[C@@H](N(C)c2nc(OC[C@@]34CCCN3C[C@H](F)C4)nc3c(F)c(-c4ccc(F)c5sc(N)c(C#N)c45)c(C(F)(F)F)cc23)[C@H]1C [Compound 260],< 100,100 to 1000,≤ 100,–,–,–,–,–,–,–,–,–,–,–
"CCN(c1nc(OC[C@@]23CCCN2C[C@H](F)C3)nc2c(F)c(-c3ccc(F)c4sc(N)c(C#N)c34)c(C(F)(F)F)cc12)[C@H]1C[C@H](C)N(C(=O)[C@@H]2CC2(F)F)C1 (atropisomer, axis not shown) [Compound 751]",–,≤ 100,≤ 100,< 100,≤ 100,–,–,–,–,–,–,–,–,–
CCN(c1nc(OC[C@@]23CCCN2C[C@H](F)C3)nc2c(F)c(-c3ccc(F)c4sc(N)c(C#N)c34)c(Cl)cc12)[C@@H]1CCN(C(=O)C2CC2)[C@@H]1C [Compound 337],–,≤ 100,≤ 100,–,≤ 100,< 100,–,–,–,–,–,–,–,–
CC(=O)N1CC[C@@H](N(C)c2nc(OC[C@@]34CCCN3C[C@H](F)C4)nc3c(F)c(-c4ccc(F)c5sc(N)c(C#N)c45)c(Cl)cc23)[C@H]1C [Compound 398],–,100 to 1000,≤ 100,–,≤ 100,< 100,–,–,–,–,–,–,–,–
"C/C=C/C(=O)N1CC[C@H](N(CC)c2nc(OC[C@@]34CCCN3C[C@H](F)C4)nc3c(F)c(-c4ccc(F)c5sc(N)c(C#N)c45)c(C(F)(F)F)cc23)C1 (atropisomer, axis not shown) [Compound 674]",–,≤ 100,≤ 100,< 100,≤ 100,–,100 to 1000,≤ 100,≤ 100,–,–,–,–,–
"CC(=O)N1CC[C@@H](N(C)c2nc(OC[C@@]34CCCN3C[C@H](F)C4)nc3c(F)c(-c4ccc(F)c5sc(N)c(C#N)c45)c(C(F)(F)F)cc23)[C@H]1C (single isomer, unassigned) [Compound 193]",< 100,–,≤ 100,–,≤ 100,–,< 100,100 to 1000,100 to 1000,–,–,–,–,–
"CCN(c1nc(OC[C@@]23CCCN2C[C@H](F)C3)nc2c(F)c(-c3ccc(F)c4sc(N)c(C#N)c34)c(C(F)(F)F)cc12)[C@H]1CCN(C(=O)N2CC(F)C2)C1 (atropisomer, axis not shown) [Compound 606]",–,≤ 100,≤ 100,< 100,≤ 100,–,< 100,≤ 100,100 to 1000,–,–,–,–,–
CCN(c1nc(OCC23CCCN2CC(F)C3)nc2c(F)c(-c3ccc(F)c4sc(N)c(C#N)c34)c(C(F)(F)F)cc12)C1CC(C)N(C(=O)C2CC2(F)F)C1 (centres unmarked) [Compound 732],–,–,–,–,–,–,–,100 to 1000,100 to 1000,< 100,< 100,≤ 100,≤ 100,≤ 100
CCN(c1nc(OC[C@@]23CCCN2C[C@H](F)C3)nc2c(F)c(-c3ccc(F)c4sc(N)c(C#N)c34)c(C(F)(F)F)cc12)[C@@H]1CCN(C(C)=O)C1 [Compound 268],–,≤ 100,≤ 100,–,≤ 100,< 100,< 100,100 to 1000,100 to 1000,–,–,–,–,–
CCN(c1nc(OC[C@@]23CCCN2C[C@H](F)C3)nc2c(F)c(-c3ccc(F)c4sc(N)c(C#N)c34)c(Cl)cc12)[C@@H]1CCN(C(C)=O)[C@@H]1C [Compound 323],–,≤ 100,≤ 100,–,≤ 100,< 100,–,–,–,–,–,–,–,–
N#Cc1c(N)sc2c(F)ccc(-c3c(C(F)(F)F)cc4c(N5CCCOCC5)nc(OC[C@@]56CCCN5C[C@H](F)C6)nc4c3F)c12 [Compound 232],–,≤ 100,≤ 100,–,–,< 100,< 100,100 to 1000,100 to 1000,–,–,–,–,–
